Laboratory results taken from patent publication US9351918B2, “Polyglycerol-azelaic acid polyesters for cosmetic applications” (GIULIANI S.P.A., priority 2012, dated 2016).

What was measured:
[1] = tested on: TNF-α gene expression in human keratinocytes NCTC 2544; test: Anti-inflammatory test on NCTC2544: TNF-α gene expression by RT-PCR with LPS from E. coli; format: cell-based; settings: 20 μM together with LPS 5 μg/ml, 24 hours
Protocol: The anti-inflammatory effects were investigated of polyglyceryl-3 azelaiate oligomers (POLY-AZ) obtained with the method in Example 1 in an in vitro model of inflammation on human keratinocytes NCTC2544, and using lipopolysaccharide
(LPS) from E. coli to mediate inflammation or irritation. The effect of the derivative in the models used was compared with that of azelaic acid (AZ-ACID), a known anti-inflammatory agent.
(§1) The TNF-α gene expression in NCTC 2544 was evaluated using RT-PCR.
There are four phases to the gene expression analysis:
1. Treatment of cells with active compounds for 16, 24 and 48 hours; […]
(§2) The extracted and quantified total RNA was amplified using the “High Capacity cDNA Reverse Transcription Kit” (Applied Biosystems). […]
(§3) The relative quantification method was used which compares the relative concentration of the gene of interest (target) in unknown samples to a calibrator or control sample (untreated cells). […]
(§4) The data provided by the Stratagene Mx3000P tool was recorded by the MXpro v.4.01 software. […]
Following the preliminary model validation experiment described above, the TNF-α gene expression was evaluated using RT-PCR on NCTC 2544 cells, after treatments with 20 μM of polyglyceryl-3-azelaiate and 20 μM of azelaic acid together with LPS at 5 μg/ml in the culture medium to evaluate the anti-inflammatory effect of the two compounds. […]

[2] = tested on: TNF-α gene expression in human keratinocytes NCTC 2544; test: Test of irritancy potential in NCTC2544: TNF-α gene expression by RT-PCR, compared with LPS positive control; format: cell-based; settings: 20 μM, 24 hours
Protocol: The irritant potential of the derivative (POLY-AZ) was also determined in vitro compared with a positive control (cells treated with 5 μg/ml of lipopolysaccharide). The results were compared with those obtained using azelaic acid (AZ-ACID) in the same experimental model.
as §1
Test of Irritancy Potential in NCTC2544
When the cells (human keratinocytes NCTC 2544) reached approximately 80% confluence, they were separated with trypsin/EDTA and seeded at a density of 1×10^6 cells/ml in a 12-well plate and then incubated at 37° C., 5% CO2 (24 hours).
Day 2: 24-Hour Exposure to Substances […]
as §2, §3, §4
The TNF-α gene expression in NCTC 2544 cells was also evaluated after treatments with 20 μM of polyglyceryl-3-azelaiate and 20 μM of azelaic acid compared with cells treated with LPS (5 μg/ml) in the culture medium, in order to compare the effects of these compounds against a known irritant agent (LPS). […]

O=C(O)CCCCCCCC(=O)O [azelaic acid, nonanedioic acid]
Inhibitory effect on TNF-α gene expression (anti-inflammatory effect) [1]: does not produce an inhibitory effect | Irritancy potential [2]: neither are irritating
